Experimental data published in BindingDB's records for doi:10.1016/j.bmc.2018.03.016 (University of Lille, 2018).

Test: Modulation of human wild-type APP695 expressed in SH-SY5Y cells assessed as inhibition of amyloid beta (1 to 42 residues) production measured after 24 hrs by ELISA

Compound | IC50 [µM]
c1ccc(Nc2cc(CNCCN3CCCCC3)cc(CNCCN3CCCCC3)c2)c(CN2CCCCC2)c1 | 6
O=C(NCCN1CCCCC1)c1cc(C(=O)NCCN2CCCCC2)cc(-c2ccccc2CN2CCCCC2)c1 | 9.4
CCN(CC)Cc1cccc(Nc2ccnc3cc(Cl)ccc23)c1 | 10.4
CN(C)Cc1ccccc1Nc1cc(C(=O)NCCN2CCCCC2)cc(C(=O)NCCN2CCCCC2)c1 | > 10
CCN(CC)Cc1cc(NCCN2CCCCC2)cc(Nc2ccnc3cc(Cl)ccc23)c1 | 13.8
c1ccc(Nc2cc(CNCCN3CCCCC3)cc(CNCCN3CCCCC3)c2)c(CN2CCOCC2)c1 | 7.9
Oc1c(CN2CCCC2)cc(Nc2ccnc3cc(Cl)ccc23)cc1CN1CCCC1 | 11.2
O=C(CN1CCCCC1)Nc1cc(CN2CCOCC2)cc(Nc2ccnc3cc(Cl)ccc23)c1 | 7.1
CCN(CC)CCC[C@@H](C)Nc1ccnc2cc(Cl)ccc12 [Aralen] | 12.8

These reach a lower IC50. Values come first.

IC50 [µM] | Compound
5.4 | CCN(CC)Cc1cc(Nc2ccnc3cc(Cl)ccc23)ccc1O [Amodiaquin]
4.9 | Clc1ccc2c(Nc3cc(CN4CCOCC4)cc(NCCN4CCCCC4)c3)ccnc2c1
4.7 | O=C(NCCN1CCCCC1)c1cc(Nc2ccccc2CN2CCCCC2)cc(C(=O)NCCN2CCCCC2)c1
2.9 | CN(C)CCN(C)Cc1cc(NC(=O)CN2CCCCC2)cc(Nc2ccnc3cc(Cl)ccc23)c1
2.8 | CCN(CC)Cc1cc(NC(=O)CN2CCCCC2)cc(Nc2ccnc3cc(Cl)ccc23)c1
1.9 | CN1CCN(c2cc(Nc3ccnc4cc(Cl)ccc34)cc(N3CCN(C)CC3)c2)CC1
